Literature values, collected in US6562363B1, “Bioadhesive compositions and methods for topical administration of active agents” (Noven Pharmaceuticals, Inc., priority 1997, dated 2003).

Tests used:
[1] = application to skin or mucous membranes; for Duration of Effect: duration of anesthetic effect; for Peak Effect: time to peak anesthetic effect
[2] = application to skin or mucous membranes

Structure (SMILES) | Duration of Effect [1] | Peak Effect [1] | Maximum Adult Dose [2]
CCOC(=O)c1ccc(N)cc1 [Benzocaine] | 30 to 60 min | 1 min | 5000 mg
COC(=O)[C@H]1[C@@H](OC(=O)c2ccccc2)C[C@@H]2CC[C@H]1N2C [Cocaine] |  |  | 50 mg
CCCCOc1cc(C(=O)NCCN(CC)CC)c2ccccc2n1 [Dibucaine] | 120 to 240 min | <15 min | 25 mg
CCCCOc1ccc(C(=O)CCN2CCCCC2)cc1 [Dyclonine] | <60 min | <10 min | 100 mg
CCN(CC)CC(=O)Nc1c(C)cccc1C [Lidocaine] |  |  | 750 mg
CCCCNc1ccc(C(=O)OCCN(C)C)cc1 [Tetracaine] | 30 to 60 min | 3 to 8 min | 50 mg
